Legend:
[1] = target: Cytochrome P450 11B1, mitochondrial (Bos taurus, UniProt P15150); assay: Mechanism based inhibition of bovine cytochrome P450 CYP11B1; format: ADME; conditions: cattle
CYP2B11 [2] = target: T1, CYP2B11 (Canis lupus familiaris, UniProt P24460); assay: (§1) Mechanism based inhibition of dog cytochrome P450 CYP2B11 measured by Diazepam N1-demethylation using liver microsomes; format: ADME, Microsome; conditions: dog, liver microsomes, probe diazepam (N1-demethylation)
Cytochrome P450 2B11 [3] = target: T2, Cytochrome P450 2B11 (Canis lupus familiaris, UniProt P24460); assay: as §1; format: ADME, Microsome
T2 sequence (P24460 whole entry): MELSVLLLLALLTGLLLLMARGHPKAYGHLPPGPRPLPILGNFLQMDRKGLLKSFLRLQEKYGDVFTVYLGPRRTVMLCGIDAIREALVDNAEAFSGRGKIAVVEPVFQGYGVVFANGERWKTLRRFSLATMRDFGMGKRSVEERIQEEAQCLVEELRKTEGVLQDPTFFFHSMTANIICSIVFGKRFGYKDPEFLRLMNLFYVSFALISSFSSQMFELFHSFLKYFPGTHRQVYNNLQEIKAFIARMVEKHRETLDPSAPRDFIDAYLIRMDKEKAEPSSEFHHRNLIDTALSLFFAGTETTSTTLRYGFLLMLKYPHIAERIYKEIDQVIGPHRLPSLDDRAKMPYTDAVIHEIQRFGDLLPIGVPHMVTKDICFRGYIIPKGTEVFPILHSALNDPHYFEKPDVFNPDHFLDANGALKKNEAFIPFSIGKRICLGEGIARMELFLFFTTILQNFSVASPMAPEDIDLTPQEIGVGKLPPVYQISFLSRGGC

CYP2B11 [4] = target: T1, CYP2B11; assay: (§2) Mechanism based inhibition of dog cytochrome P450 CYP2B11 measured by Diazepam N1-demethylation using recombinant enzyme; format: ADME; conditions: dog, recombinant CYP2B11, probe diazepam (N1-demethylation)
Cytochrome P450 2B11 [5] = target: T2, Cytochrome P450 2B11; assay: as §2; format: ADME
Cytochrome P450 3A12 = Cytochrome P450 3A12 (Canis lupus familiaris, UniProt P24463); assay: Mechanism based inhibition of dog cytochrome P450 CYP3A12; format: ADME
Chain of Cytochrome P450 3A12 (P24463 whole entry): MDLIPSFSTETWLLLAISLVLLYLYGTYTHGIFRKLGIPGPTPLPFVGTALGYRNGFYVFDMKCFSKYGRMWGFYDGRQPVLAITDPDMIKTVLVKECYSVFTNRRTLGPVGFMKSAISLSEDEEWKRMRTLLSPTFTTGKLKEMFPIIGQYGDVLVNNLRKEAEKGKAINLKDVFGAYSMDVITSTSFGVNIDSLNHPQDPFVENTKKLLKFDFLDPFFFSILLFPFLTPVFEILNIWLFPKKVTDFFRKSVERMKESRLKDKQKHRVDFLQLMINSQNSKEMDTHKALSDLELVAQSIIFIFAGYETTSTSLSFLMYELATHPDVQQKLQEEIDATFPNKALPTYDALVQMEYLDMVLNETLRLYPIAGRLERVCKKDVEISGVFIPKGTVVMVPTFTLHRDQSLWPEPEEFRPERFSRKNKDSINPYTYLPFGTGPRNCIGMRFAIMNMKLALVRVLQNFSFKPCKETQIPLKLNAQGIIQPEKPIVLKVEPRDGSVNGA

CYP1A1 = target: T3, CYP1A1 (Rattus norvegicus, UniProt P00185); assay: (§3) Mechanism based inhibition of rat cytochrome P450 CYP1A1 measured by 7-ethoxyresorufin O-deethylation (EROD); format: ADME; conditions: rat, probe 7-ethoxyresorufin (O-deethylation, EROD)
T3 sequence (P00185 whole entry): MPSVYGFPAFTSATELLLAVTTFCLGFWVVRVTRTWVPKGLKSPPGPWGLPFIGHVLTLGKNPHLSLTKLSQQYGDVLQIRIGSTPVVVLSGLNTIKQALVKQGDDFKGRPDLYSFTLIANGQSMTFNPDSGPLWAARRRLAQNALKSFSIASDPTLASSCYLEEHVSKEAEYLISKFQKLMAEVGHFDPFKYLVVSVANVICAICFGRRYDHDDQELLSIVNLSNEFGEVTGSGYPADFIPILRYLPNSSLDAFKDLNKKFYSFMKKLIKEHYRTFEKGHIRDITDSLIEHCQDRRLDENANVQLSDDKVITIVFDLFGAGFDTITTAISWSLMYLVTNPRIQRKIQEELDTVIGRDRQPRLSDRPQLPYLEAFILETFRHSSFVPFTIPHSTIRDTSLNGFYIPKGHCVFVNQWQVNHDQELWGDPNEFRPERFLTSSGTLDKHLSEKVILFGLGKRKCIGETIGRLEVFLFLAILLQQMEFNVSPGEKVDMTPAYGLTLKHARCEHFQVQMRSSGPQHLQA

Cytochrome P450 1A1 [6] = target: T4, Cytochrome P450 1A1 (Rattus norvegicus, UniProt P00185); assay: as §3; format: ADME
T4 sequence (P00185 whole entry): T3 sequence (P00185 whole entry)

Cytochrome P450 1A2 [7] = target: T5, Cytochrome P450 1A2 (Rattus norvegicus, UniProt P04799); assay: (§4) Mechanism based inhibition of rat cytochrome P450 CYP1A2; format: ADME
T5 sequence (P04799 whole entry): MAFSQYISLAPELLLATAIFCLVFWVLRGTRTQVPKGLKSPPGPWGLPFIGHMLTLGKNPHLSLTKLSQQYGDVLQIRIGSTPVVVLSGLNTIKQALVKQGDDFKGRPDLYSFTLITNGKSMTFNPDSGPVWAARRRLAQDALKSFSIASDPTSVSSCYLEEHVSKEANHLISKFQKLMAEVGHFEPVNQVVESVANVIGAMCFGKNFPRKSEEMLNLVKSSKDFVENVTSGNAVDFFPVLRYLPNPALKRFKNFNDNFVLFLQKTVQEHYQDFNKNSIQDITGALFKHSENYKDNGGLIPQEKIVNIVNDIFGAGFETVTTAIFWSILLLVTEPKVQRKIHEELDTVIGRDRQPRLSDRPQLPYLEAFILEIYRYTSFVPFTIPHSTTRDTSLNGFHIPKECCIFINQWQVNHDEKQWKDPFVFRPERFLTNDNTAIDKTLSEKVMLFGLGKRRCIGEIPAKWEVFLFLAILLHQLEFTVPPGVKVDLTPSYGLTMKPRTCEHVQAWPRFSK

CYP1A2 = target: T6, CYP1A2 (Rattus norvegicus, UniProt P04799); assay: as §4; format: ADME; conditions: rat
T6 sequence (P04799 whole entry): T5 sequence (P04799 whole entry)

Cytochrome P450 1A2 [8] = target: T7, Cytochrome P450 1A2 (Homo sapiens, UniProt P05177); assay: Mechanism based inhibition of human cytochrome P450 1A2 measured by 7-ethoxyresorufin O-deethylation (EROD); format: ADME
T7 sequence (P05177 whole entry): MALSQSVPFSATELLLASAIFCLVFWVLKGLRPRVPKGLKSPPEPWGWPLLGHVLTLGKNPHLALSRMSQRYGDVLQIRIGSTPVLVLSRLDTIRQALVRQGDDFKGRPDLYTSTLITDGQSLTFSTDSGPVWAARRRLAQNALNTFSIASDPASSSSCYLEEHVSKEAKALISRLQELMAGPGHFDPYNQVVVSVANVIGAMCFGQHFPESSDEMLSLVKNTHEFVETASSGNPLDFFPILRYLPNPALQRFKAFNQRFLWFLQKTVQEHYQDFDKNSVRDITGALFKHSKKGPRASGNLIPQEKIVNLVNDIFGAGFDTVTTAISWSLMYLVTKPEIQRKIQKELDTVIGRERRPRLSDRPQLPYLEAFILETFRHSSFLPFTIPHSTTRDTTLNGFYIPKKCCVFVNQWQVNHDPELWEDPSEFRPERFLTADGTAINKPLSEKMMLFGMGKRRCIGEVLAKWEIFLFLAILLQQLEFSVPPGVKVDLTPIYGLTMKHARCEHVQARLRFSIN

Cytochrome P450 1A1 [9] = target: T8, Cytochrome P450 1A1 (Homo sapiens, UniProt P04798); assay: Mechanism based inhibition of human cytochrome P450 1A1 measured by 7-ethoxyresorufin O-deethylation (EROD); format: ADME
T8 sequence (P04798 whole entry): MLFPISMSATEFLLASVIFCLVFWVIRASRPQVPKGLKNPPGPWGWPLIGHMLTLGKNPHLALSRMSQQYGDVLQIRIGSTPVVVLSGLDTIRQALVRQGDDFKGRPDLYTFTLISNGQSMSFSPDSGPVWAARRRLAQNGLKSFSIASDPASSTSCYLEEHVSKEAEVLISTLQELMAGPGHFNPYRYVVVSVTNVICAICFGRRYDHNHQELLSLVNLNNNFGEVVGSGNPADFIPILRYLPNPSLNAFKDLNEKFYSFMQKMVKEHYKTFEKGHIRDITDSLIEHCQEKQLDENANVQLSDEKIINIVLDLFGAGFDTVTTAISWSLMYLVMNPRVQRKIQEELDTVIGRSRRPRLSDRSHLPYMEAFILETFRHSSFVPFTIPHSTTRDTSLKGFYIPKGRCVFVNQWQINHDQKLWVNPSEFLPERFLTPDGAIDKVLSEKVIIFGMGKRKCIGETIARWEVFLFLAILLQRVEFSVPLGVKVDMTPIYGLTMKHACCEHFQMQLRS

Cytochrome P450 4A4 = Cytochrome P450 4A4 (Oryctolagus cuniculus, UniProt P10611); assay: Mechanism based inhibition of rabbit cytochrome P450 CYP4A4; format: ADME
Chain of Cytochrome P450 4A4 (P10611 whole entry): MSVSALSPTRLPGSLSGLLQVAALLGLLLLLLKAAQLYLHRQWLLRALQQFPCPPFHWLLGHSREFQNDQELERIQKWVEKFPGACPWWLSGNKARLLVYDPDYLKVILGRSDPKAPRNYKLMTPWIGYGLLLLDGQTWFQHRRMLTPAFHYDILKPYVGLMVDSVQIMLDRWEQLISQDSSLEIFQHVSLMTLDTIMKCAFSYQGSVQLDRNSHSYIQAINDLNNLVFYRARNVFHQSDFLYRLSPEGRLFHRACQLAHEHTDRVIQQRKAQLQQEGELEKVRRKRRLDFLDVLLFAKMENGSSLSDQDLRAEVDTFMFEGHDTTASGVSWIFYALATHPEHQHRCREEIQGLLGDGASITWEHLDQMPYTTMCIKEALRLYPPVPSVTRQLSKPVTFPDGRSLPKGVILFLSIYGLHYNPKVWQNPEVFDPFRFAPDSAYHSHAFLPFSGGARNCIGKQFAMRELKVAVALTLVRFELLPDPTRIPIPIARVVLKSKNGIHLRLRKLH

Cytochrome P450 3A11 = Cytochrome P450 3A11 (Mus musculus, UniProt Q64459); assay: Mechanism based inhibition of mouse cytochrome P450 CYP3A11; format: ADME
Chain of Cytochrome P450 3A11 (Q64459 whole entry): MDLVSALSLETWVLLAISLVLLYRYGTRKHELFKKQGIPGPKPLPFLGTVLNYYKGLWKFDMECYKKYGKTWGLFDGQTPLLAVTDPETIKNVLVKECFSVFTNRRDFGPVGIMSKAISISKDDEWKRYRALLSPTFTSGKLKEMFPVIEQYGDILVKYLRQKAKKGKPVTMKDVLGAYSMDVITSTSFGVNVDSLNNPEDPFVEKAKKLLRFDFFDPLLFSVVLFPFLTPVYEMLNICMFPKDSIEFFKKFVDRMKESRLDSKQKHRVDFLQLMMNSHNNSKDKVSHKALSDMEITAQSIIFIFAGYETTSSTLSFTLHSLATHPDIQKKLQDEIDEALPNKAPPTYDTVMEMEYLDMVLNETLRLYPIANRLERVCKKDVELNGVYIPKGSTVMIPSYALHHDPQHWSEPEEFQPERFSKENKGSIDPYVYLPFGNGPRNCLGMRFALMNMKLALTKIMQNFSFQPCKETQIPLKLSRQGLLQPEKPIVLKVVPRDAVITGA

Cytochrome P450 2E1 [10] = target: T9, Cytochrome P450 2E1 (Rattus norvegicus, UniProt P05182); assay: (§5) Mechanism based inhibition of rat cytochrome P450 CYP2E1 measured by P-nitrophenol (PNP) hydroxylase activity; format: ADME
T9 sequence (P05182 whole entry): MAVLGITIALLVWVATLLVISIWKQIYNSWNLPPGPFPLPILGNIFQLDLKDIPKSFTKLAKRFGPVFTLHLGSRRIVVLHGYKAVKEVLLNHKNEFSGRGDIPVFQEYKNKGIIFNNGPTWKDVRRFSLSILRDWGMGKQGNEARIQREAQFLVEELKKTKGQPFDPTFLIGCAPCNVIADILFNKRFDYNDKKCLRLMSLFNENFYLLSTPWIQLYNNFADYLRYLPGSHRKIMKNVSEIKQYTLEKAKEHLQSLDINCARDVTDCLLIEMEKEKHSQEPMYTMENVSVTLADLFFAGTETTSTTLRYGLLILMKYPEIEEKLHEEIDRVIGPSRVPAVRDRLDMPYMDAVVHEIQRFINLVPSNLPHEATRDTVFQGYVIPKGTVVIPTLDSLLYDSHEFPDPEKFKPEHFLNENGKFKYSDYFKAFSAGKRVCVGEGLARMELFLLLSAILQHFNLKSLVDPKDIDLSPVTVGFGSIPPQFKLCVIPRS

CYP2E1 = CYP2E1 (Rattus norvegicus, UniProt P05182); assay: as §5; format: ADME; conditions: rat, probe p-nitrophenol (PNP hydroxylase activity)
Chain of CYP2E1 (P05182 whole entry): as above

Cytochrome P450 2E1 [11] = target: T9, Cytochrome P450 2E1; assay: Mechanism based inhibition of rat cytochrome P450 CYP2E1; format: ADME

T1 sequence (P24460 whole entry): as the sequence (P24460 whole entry) above
Chain of Cytochrome P450 11B1, mitochondrial (P15150 whole entry): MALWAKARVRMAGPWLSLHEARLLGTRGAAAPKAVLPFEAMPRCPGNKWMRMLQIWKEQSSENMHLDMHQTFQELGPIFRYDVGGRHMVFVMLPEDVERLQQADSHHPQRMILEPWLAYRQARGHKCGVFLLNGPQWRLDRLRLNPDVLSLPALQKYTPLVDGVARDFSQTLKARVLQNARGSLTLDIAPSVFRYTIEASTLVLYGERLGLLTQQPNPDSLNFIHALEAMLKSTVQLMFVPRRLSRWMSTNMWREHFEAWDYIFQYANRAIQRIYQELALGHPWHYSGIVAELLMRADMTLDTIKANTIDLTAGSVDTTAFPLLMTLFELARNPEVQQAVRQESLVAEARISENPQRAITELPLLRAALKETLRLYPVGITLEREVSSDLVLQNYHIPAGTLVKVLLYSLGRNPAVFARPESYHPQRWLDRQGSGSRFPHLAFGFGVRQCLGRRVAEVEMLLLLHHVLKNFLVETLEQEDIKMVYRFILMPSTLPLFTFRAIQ

Q: C=CC[C@]12CC[C@H]3[C@@H](CCC4=CC(=O)CC[C@@]43C)[C@@H]1CC[C@@H]2C(C)=O was tested. Which mechanism based inhibition [1] did it give?
A: Cytochrome P450 mechanistic inhibitor: PMID 8645613

Q: Which kinact (CYP2B11 [2]) does the source give for CC(Nn1nnc2ccccc21)c1ccccc1 (configuration not stated) here?
A: 0.00933 s⁻¹

Q: And the Ki (Cytochrome P450 2B11 [3])?
A: 0.46 µM

Q: What about the kinact (CYP2B11 [4]) of the same molecule?
A: 0.025 s⁻¹

Q: What about the Ki (Cytochrome P450 2B11 [5]) of the same molecule?
A: 0.35 µM

Q: What about the mechanism based inhibition (Cytochrome P450 3A12) of the same molecule?
A: Cytochrome P450 mechanistic inhibitor: PMID 15677349

Q: How did the kinact (CYP1A1) turn out when CC#Cc1ccc2c(ccc3ccccc32)c1 was run?
A: 0.005 s⁻¹

Q: What about the Ki (Cytochrome P450 1A1 [6]) of the same molecule?
A: 0.01 µM

Q: And the Ki (Cytochrome P450 1A2 [7])?
A: 0.03 µM

Q: What about the kinact (CYP1A2) of the same molecule?
A: 0.005 s⁻¹

Q: And the mechanism based inhibition (Cytochrome P450 1A2 [8])?
A: Cytochrome P450 mechanistic inhibitor: PMID 9760279

Q: And the mechanism based inhibition (Cytochrome P450 1A1 [9])?
A: Cytochrome P450 mechanistic inhibitor: PMID 9760279

Q: How did the mechanism based inhibition (Cytochrome P450 4A4) turn out when C#CCCCC(O)CCCCCCCCCCC(=O)O (configuration not stated) was run?
A: Cytochrome P450 mechanistic inhibitor: PMID 9168258

Q: Which mechanism based inhibition (Cytochrome P450 3A11) does the source give for C=C(C)[C@@H]1CCC(C)=C[C@H]1c1c(O)cc(CCCCC)cc1O [CANNABIDIOL] here?
A: Cytochrome P450 mechanistic inhibitor: PMID 9778318

Q: C=CCS(=O)(=O)CC=C [DIALLYLSULFONE] was tested. Which Ki (Cytochrome P450 2E1 [10]) did it give?
A: 188 µM

Q: What about the kinact (CYP2E1) of the same molecule?
A: 0.00533 s⁻¹

Q: And the mechanism based inhibition (Cytochrome P450 2E1 [11])?
A: Cytochrome P450 mechanistic inhibitor: PMID 9084912

— ChEMBL document CHEMBL1743341, “Cytochrome p450 enzymes mechanism based inhibitors: common sub-structures and reactivity” (Curr Drug Metab, 2005)
